According to publication PMC11672294, “The Antipsychotic Drug Aripiprazole Suppresses Colorectal Cancer by Targeting LAMP2a to Induce RNH1/miR‐99a/mTOR‐Mediated Autophagy and Apoptosis” (Advanced Science, 2024):
Structures can show the parent of a compound that is named as a salt.

The compounds below were run on HT29. Settings: 72 h, relative to DMSO, 10 µM, Relative cell viability (%).
Summary of the method: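 Cells were exposed to drug for 72 h, then to WST-1 for 2 h at 37 °C, and absorbance was read at 450 nm as viability against DMSO treatment. In the screen, each compound was applied at 10 µM.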

Row | Structure (SMILES) | Relative cell viability (%) [%]
1 | COc1ccc(C[C@@H]2c3cc(OC)c(OC)cc3CC[N@+]2(C)CCC(=O)OCCCCCOC(=O)CC[N@@+]2(C)CCc3cc(OC)c(OC)cc3[C@H]2Cc2ccc(OC)c(OC)c2)cc1OC [Atracurium Besylate] | 91.95
2 | CN1CCN(c2ccc3nc(-c4c(N)c5c(F)cccc5[nH]c4=O)[nH]c3c2)CC1 [Dovitinib (TKI258) Lactate] | 3.419
3 | CCOC(=O)C1=C(COCCN)NC(C)=C(C(=O)OC)C1c1ccccc1Cl (stereo not drawn) [Amlodipine] | 88.54
4 | O=C(O)Cc1ccccc1Nc1c(Cl)cccc1Cl [Diclofenac Potassium] | 69.42
5 | N#CC[C@H](C1CCCC1)n1cc(-c2ncnc3[nH]ccc23)cn1 [S-Ruxolitinib (INCB018424)] | 98.54
6 | O=C(O)Cc1ccccc1Nc1c(Cl)cccc1Cl [Diclofenac Diethylamine] | 60.68

Same assay, conditions: 72 h, relative to DMSO; 10 µM

Row | Structure (SMILES) | Relative cell viability (%) [%]
7 | Cc1cnc(C(=O)O)c[n+]1[O-] [Acipimox] | 94.49
8 | COc1ccccc1N1CCN(CCCNc2cc(=O)n(C)c(=O)n2C)CC1 [Urapidil HCl] | 222.9
9 | CC(C[N+](C)(C)C)OC(N)=O (stereo not drawn) [Bethanechol chloride] | 104.3
10 | COc1cccc(-c2ccc(NC(=O)C3=C(C(=O)O)CCC3)c(F)c2)c1 [Vidofludimus] | 104.7
11 | O=C1OC(CN2CCOCC2)CN1/N=C/c1ccc([N+](=O)[O-])o1 (stereo not drawn) [Furaltadone HCl] | 75.76
12 | COC(=O)Nc1nc2cc(C(=O)c3ccc(F)cc3)ccc2[nH]1 [Flubendazole] | 16.95
13 | CS(=O)(=O)Nc1ccc([N+](=O)[O-])cc1Oc1ccccc1 [Nimesulide] | 191.7
14 | CCC(=O)O[C@]1(C(=O)SCF)[C@H](C)C[C@H]2[C@@H]3C[C@H](F)C4=CC(=O)C=C[C@]4(C)[C@@]3(F)[C@@H](O)C[C@@]21C [Fluticasone propionate] | 173.6
15 | COc1nc(C)nc(Cl)c1N=C1NCCN1 [Moxonidine] | 116.7
16 | CNC(=O)[C@H](Cc1ccccc1)NC(=O)[C@H](CC(C)C)[C@H](CSc1cccs1)C(=O)NO [Batimastat (BB-94)] | 103.4
17 | Nc1c(Br)cc(Br)cc1CN[C@H]1CC[C@H](O)CC1 [Ambroxol HCl] | 67.96
18 | O=c1[nH]c(=O)n([C@H]2C[C@H](O)[C@@H](CO)O2)cc1F [Floxuridine] | 44.7
19 | CC[C@H](C)C(=O)O[C@H]1CCC=C2C=C[C@H](C)[C@H](CC[C@@H]3C[C@@H](O)CC(=O)O3)[C@H]21 [Mevastatin] | 86.67
20 | CN(C)CCCN1c2ccccc2Sc2ccc(Cl)cc21 [Chlorpromazine HCl] | 93.71
21 | O[C@@H]1CO[C@H]2[C@@H]1OC[C@@H]2O [Isosorbide] | 83.94
22 | Cc1cccc(C(C)c2cnc[nH]2)c1C (stereo not drawn) [Medetomidine HCl] | 57.77
23 | CCc1nc(N)nc(N)c1-c1ccc(Cl)cc1 [Pyrimethamine] | 41.03
24 | COc1ccc(C(=O)c2ccccc2)c(O)c1 [Oxybenzone] | 118.8
25 | N#C[C@@H]1CCCN1C(=O)CNC12CC3CC(CC(O)(C3)C1)C2 [Vildagliptin (LAF-237)] | 108.7
26 | Cn1nnc2c(C(N)=O)ncn2c1=O [Temozolomide] | 86.76
27 | CCCCCCCCCCCCCCCC[n+]1ccccc1 [Cetylpyridinium Chloride] | 5.758

Row | Structure (SMILES) | Relative cell viability (%) [%]
28 | COc1ccccc1OCC(O)COC(N)=O (stereo not drawn) [Methocarbamol] | 46.19
29 | CC(C)C(=O)Nc1ccc([N+](=O)[O-])c(C(F)(F)F)c1 [Flutamide] | 100.9
30 | NCCS [Cysteamine HCl] | 89.39
31 | CC(C)(C)c1nc(-c2cccc(NS(=O)(=O)c3c(F)cccc3F)c2F)c(-c2ccnc(N)n2)s1 [Dabrafenib (GSK2118436)] | 37.38
32 | O=c1oc2c(O)c(O)cc3c(=O)oc4c(O)c(O)cc1c4c23 [Ellagic acid] | 74.3
33 | CC[C@]1(O)C[C@H]2CN(CCc3c([nH]c4ccccc34)[C@@](C(=O)OC)(c3cc4c(cc3OC)N(C=O)[C@H]3[C@@](O)(C(=O)OC)[C@H](OC(C)=O)[C@]5(CC)C=CCN6CC[C@]43[C@@H]65)C2)C1 [Vincristine] | 22.9
34 | CO[C@H]1/C=C/O[C@@]2(C)Oc3c(C)c(O)c4c(O)c(c(/C=N/N5CCN(C6CCCC6)CC5)c(O)c4c3C2=O)NC(=O)/C(C)=C\C=C\[C@H](C)[C@H](O)[C@@H](C)[C@@H](O)[C@@H](C)[C@H](OC(C)=O)[C@@H]1C [Rifapentine] | 69.07
35 | CC(C)OC(=O)[C@H](C)N[P@](=O)(CO[C@H](C)Cn1cnc2c(N)ncnc21)Oc1ccccc1 [Tenofovir Alafenamide (GS-7340)] | 125.2
36 | Oc1c(Cl)cc(Cl)c2cccnc12 [Chloroxine] | 69.07
37 | CNC(=C[N+](=O)[O-])NCCSCc1csc(CN(C)C)n1 [Nizatidine] | 77.97
38 | OC[C@@H](O)[C@@H](O)[C@H](O)[C@H](O)CO [D-Mannitol] | 114.9
39 | CCN(CC)CC#CCOC(=O)C(O)(c1ccccc1)C1CCCCC1 (stereo not drawn) [Oxybutynin] | 58.9
40 | COc1cccc2c1C(=O)c1c(O)c3c(c(O)c1C2=O)C[C@@](O)(C(=O)CO)C[C@@H]3O[C@H]1C[C@H](N)[C@@H](O)[C@H](C)O1 [Epirubicin HCl] | 10.44
41 | CCn1cc(C(=O)O)c(=O)c2cc(F)c(N3CCNCC3)nc21 [Enoxacin] | 74.15
42 | CN1C[C@@H]2c3ccccc3Oc3ccc(Cl)cc3[C@H]2C1 (racemic) [Asenapine] | 50.93
43 | CCC1(C)CC(=O)NC(=O)C1 [Bemegride] | 88.48
44 | CN(C)Cc1ccc(S(=O)(=O)n2ccc(/C=C/C(=O)NO)c2)cc1 [Resminostat] | 19.9
45 | OCCOc1ccc(/C(=C(/CCCl)c2ccccc2)c2ccccc2)cc1 [Ospemifene] | 80.303
46 | CCCCCCCCCCCC[N+](C)(C)CCOc1ccccc1 [Domiphen Bromide] | 82.12
47 | CC(=O)Oc1ccccc1C(=O)O [Aspirin] | 63.59
48 | COc1cc([C@@H]2c3cc4c(cc3[C@@H](O[C@@H]3O[C@@H]5CO[C@@H](c6cccs6)O[C@H]5[C@H](O)[C@H]3O)[C@H]3COC(=O)[C@H]23)OCO4)cc(OC)c1O [Teniposide] | 34.75

Row | Structure (SMILES) | Relative cell viability (%) [%]
49 | CN(C)[C@@H]1C(O)=C(C(N)=O)C(=O)[C@@]2(O)C(O)=C3C(=O)c4c(O)cccc4[C@@](C)(O)[C@H]3[C@H](O)[C@@H]12 [Oxytetracycline Dihydrate] | 170.4
50 | CC[C@@H]1/C=C(\C)C[C@H](C)C[C@H](OC)[C@H]2O[C@@](O)(C(=O)C(=O)N3CCCC[C@H]3C(=O)O[C@H](/C(C)=C/[C@@H]3CC[C@H](Cl)[C@H](OC)C3)[C@H](C)[C@@H](O)CC1=O)[C@H](C)C[C@@H]2OC [Pimecrolimus] | 64.96
51 | NC(=O)N1CCC(CC(=O)N2CCC([C@H]3c4ncc(Br)cc4CCc4cc(Cl)cc(Br)c43)CC2)CC1 [Lonafarnib] | 95.63
52 | COC(c1ccccc1)(c1ccccc1)[C@H](Oc1nc(C)cc(C)n1)C(=O)O [Ambrisentan] | 132.6
53 | CNC[C@H](O)[C@@H](O)[C@H](O)[C@H](O)CO [Meglumine] | 172.9
54 | Cc1ccnc2c1NC(=O)c1cccnc1N2C1CC1 [Nevirapine] | 94.49
55 | O=c1ccn([C@@H]2O[C@H](CO)[C@@H](O)[C@H]2O)c(=O)[nH]1 [Uridine] | 222.2
56 | COc1ccc(-c2ccc3cc(C(=O)O)ccc3c2)cc1[C@]12C[C@H]3C[C@H](C[C@H](C3)C1)C2 [Adapalene] | 16.67
57 | NC(=O)c1cn(Cc2c(F)cccc2F)nn1 [Rufinamide] | 91.43
58 | CS(=O)(=O)c1ccc([C@@H](O)[C@@H](CF)NC(=O)C(Cl)Cl)cc1 [Florfenicol] | 85.76
59 | N#C/C(=C1/SC[C@@H](c2ccc(Cl)cc2Cl)S1)n1ccnc1 [Luliconazole] | 76.67
60 | C[C@]12CC[C@H](O)CC1=CC[C@@H]1[C@@H]2CC[C@]2(C)C(n3cnc4ccccc43)=CC[C@@H]12 [Galeterone] | 25.73
61 | NC(=O)[C@@H]1CCCN1C(=O)[C@H](Cc1cnc[nH]1)NC(=O)[C@@H]1CCC(=O)N1 [Protirelin] | 76.5
62 | CC(=O)OCC(=O)[C@H]1CC[C@H]2[C@@H]3CCC4=CC(=O)CC[C@]4(C)[C@H]3CC[C@]12C [Deoxycorticosterone acetate] | 81.21
63 | Cc1cc(/C=C/C#N)cc(C)c1Nc1ccnc(Nc2ccc(C#N)cc2)n1 [Rilpivirine] | 58.55
64 | CC(=O)O[C@]1(C(C)=O)CC[C@H]2[C@@H]3C=C(C)C4=CC(=O)CC[C@]4(C)[C@H]3CC[C@@]21C [Megestrol Acetate] | 68.07
65 | COCCCC/C(=N\OCCN)c1ccc(C(F)(F)F)cc1 [Fluvoxamine maleate] | 72.74
66 | Cc1ccc(Nc2nccc(N(C)c3ccc4c(C)n(C)nc4c3)n2)cc1S(N)(=O)=O [Pazopanib] | 46.12
67 | CC(/C=C1\SC(=S)N(CC(=O)O)C1=O)=C\c1ccccc1 [Epalrestat] | 135.7
68 | CCCNC(=O)NS(=O)(=O)c1ccc(Cl)cc1 [Chlorpropamide] | 79.39

Same assay, conditions: ht29 cells, 72 h, 10 µM

Row | Structure (SMILES) | Relative cell viability (%) [%]
69 | C[C@]12Cc3c[nH]nc3C[C@@H]1CC[C@@H]1[C@@H]2CC[C@@]2(C)[C@H]1CC[C@]2(C)O [Stanozolol] | 83.05
